Like-named read-outs stand apart in the source and are kept apart here. Marks after values point to notes of the source that are not given here.
Tests used:
Bruton's Tyrosine Kinase = Bruton's Tyrosine Kinase (Homo sapiens, UniProt Q06187); test: Bruton's Tyrosine Kinase (BTK) inhibition TR-FRET competition assay; format: binding; details: for IC50: inactivated state of BTK, 18-24 h at 14° C.
Procedure: This BTK competition assay measures compound potency (IC50) for the inactivated state of Bruton's Tyrosine Kinase using FRET (Firster/Fluorescence Resonance Energy Transfer) technology. The BTK-Eu complex was incubated on ice one hour prior to use at a starting concentration of 50 nM BTK-Bioease™: 10 nM Eu-streptavidin (Perkin-Elmer Catalog#AD0062). The assay buffer consisted of 20 mM HEPES (pH 7.15), 0.1 mM DTT, 10 mM MgCl2, 0.5 mg/ml BSA with 3% Kinase Stabilizer (Fremont Biosolutions, Catalog #STB-K02). After 1 h, the reaction mixture from above was diluted 10 fold in assay buffer to make 5 nM BTK: InM Eu-Streptavidin complex (donor fluorophore). 18 l of a mixture of 0.11 nM BTK-Eu and 0.11 nM Kinase Tracer 178 (Invitrogen, Catalog #PV5593,) with BTK-Eu alone as no negative control, was then dispensed into 384-well flat bottom plates (Greiner, 784076). Compounds to be tested in assay were prepared as 10× concentrations and serial dilution in half-log increments was performed in DMSO so as to generate 10 point curves. To initiate the FRET reaction, compounds prepared as 10× stock in DMSO was added to the plates and the plates were incubated 18-24 h at 14° C.
After the incubation the plates were read on a BMG Pherastar Fluorescent plate reader (or equivalent) and used to measure the emission energy from the europium donor fluorophore (620 nm emission) and the FRET (665 nm emission). The negative control well values were averaged to obtain the mean minimum. The positive “no inhibitor” control wells were averaged to obtain the mean maximum. Percent of maximal FRET was calculated using following equation:
% max FRET=100×[(FSRcmpd−FSRmean min)/(FSRmean max−FSRmean min)]
where FSR=FRET Signal ratio. % Max FRET curves were plotted in Activity Base (Excel) and the IC50(%), hill slope, z′ and % CV were determined. The mean IC50 and standard deviation will be derived from duplicate curves (singlet inhibition curves from two independent dilutions) using Microsoft Excel.

[1] = tested on: OVA sensitized and challenged mice, allergen-induced bronchoconstriction; test: Ovalbumin-induced allergic airway disease: allergen-induced bronchoconstriction; details: Intranasal
Pharmacokinetics in rat = format: in vivo; details: for CL / clearance: 0.5 mg/kg (iv); for Oral Bioavailability / bioavailability: 0.5 (iv), 2 (po) mg/kg; for clearance / bioavailability: plasma; for bioavailability: 2 mg/kg
Btk kinase = Btk kinase (Homo sapiens, UniProt Q06187); test: Btk Biacore binding assay; details: for off rate: Biacore; for kon: read-out: Biacore Ka
Procedure: Analyses were performed on a Biacore T-100. Btk kinase was avi-tagged and co-expressed in baculovirus with biotin ligase to generate single site biotinylated Btk (Avidity, LLC). Biotinylated target was captured on Biacore streptavidin sensor chips (Series S Sensor Chip SA) at densities of ˜10000 resonance units (1 ru˜1 pg protein/mm2). […] Compounds were injected for 100 seconds association time and dissociation was followed for 20 min.

Pharmacokinetics in dog = format: in vivo; details: for CL / clearance: 1.0 mg/kg (iv); for Oral Bioavailability / bioavailability: 1.0 (iv), 1.0 (po) mg/kg; for clearance / bioavailability: plasma; for bioavailability: 1 mg/kg
[2] = tested on: human mast cells (FCεRI activation); test: Human mast cell activation, mediator release after FCεRI activation; format: cell-based; details: N = 3 donors
Procedure: One million human cord blood derived CD34+ hematopoietic stem cells (HSCs) from different donors (AllCells #CB008F-S, Emeryville, Calif.) were cultured for eight weeks in a serum-free complete medium (StemPro-34 with supplements; Invitrogen, Carlsbad, Calif.), with recombinant h-SCF (100 ng/ml) and h-IL6 (50 ng/ml). During the first week of culturing, recombinant h-IL3 (10 ng/ml) was also included to support HSCs differentiation. After 8 weeks of culture, cells were stimulated with recombinant h-IL-4 (10 ng/ml) for 5 days. Confirmation of the mast cell differentiation process was routinely done by FACS to check for c-kit and FcsRI expression; differentiated cells were routinely more than 90% c-kit positive, FceRI positive. Differentiated mast cells were sensitized with […] anti-NP IgE (Serotec, Raleigh, N.C.) overnight at 37° C. Cells were washed and then treated with Compound 1 for 1 hour at 37° C. After treatment, cells were cross-linked with […] NP(30)-BSA (Biosearch Technologies, Novato Calif.) for 30 minutes (for histamine and lipid mediator assessment) or overnight (for cytokine assessment). Culture supernatants were collected and assayed for histamine (Oxford Biomedical Research, Rochester Hills, Mich.), PGD2 and LTC4 (Cayman Chemical Company, Ann Arbor Mich.), and IL-5 and IL-13 (Bio-Rad Bio-Plex Pro cytokine quantification kit) release as per kits' instructions. Compound 1, Compound 2 and Compound 3 reduced the release of these mediators into the supernatant in a concentration dependent manner up to 100% efficacy and the IC50 values are reported in Table 2.

[3] = tested on: human B cells (BCR activation); test: Human B cell antibody production after BCR activation; format: cell-based; details: Homo sapiens, B-cell, 240 h, 10 days culture, N = 3 donors
Procedure: Human total B cells were enriched with RosetteSep human B cell enrichment cocktail (#28921, Vancouver, BC) from buffy coat leukocyte packs (New York Blood Center) following manufacturer's protocol. Enriched B cell purity (around 80%) was checked by FACS with CD19+ staining. B cells were suspended (0.1 million cells/well/100 μl) in RPMI-1640 based conditional medium (50 ng/ml IL-2, 50 ng/ml IL-10, and […] anti-IgD for the activation of B cells to produce IgG/IgM; 10 ng/ml IL-4, 10 ng/ml IL-10, 25 ng/ml IL-21, and […] anti-CD40 for the activation of B cells to produce IgE) together with Compound 1 (1 nM-10 μM). Cells were cultured for 10 days (for IgG/IgM production) or 14 days (for IgE production) at 37° C. Culture supernatants were collected for IgM, IgG, and IgE analysis following Bethyl Laboratory's protocol (#E80-104, #E80-100, #E80-108, Montgomery, Tex.).

[4] = delivered dose 0.3 mg/kg, deposited dose 0.3 mg/kg
[5] = delivered dose 1.0 mg/kg, deposited dose 1.0 mg/kg
[6] = delivered dose 3.0 mg/kg, deposited dose 3.0 mg/kg
[7] = read-out: IC50 Histamine release

Chain of Bruton's Tyrosine Kinase (Q06187 whole entry): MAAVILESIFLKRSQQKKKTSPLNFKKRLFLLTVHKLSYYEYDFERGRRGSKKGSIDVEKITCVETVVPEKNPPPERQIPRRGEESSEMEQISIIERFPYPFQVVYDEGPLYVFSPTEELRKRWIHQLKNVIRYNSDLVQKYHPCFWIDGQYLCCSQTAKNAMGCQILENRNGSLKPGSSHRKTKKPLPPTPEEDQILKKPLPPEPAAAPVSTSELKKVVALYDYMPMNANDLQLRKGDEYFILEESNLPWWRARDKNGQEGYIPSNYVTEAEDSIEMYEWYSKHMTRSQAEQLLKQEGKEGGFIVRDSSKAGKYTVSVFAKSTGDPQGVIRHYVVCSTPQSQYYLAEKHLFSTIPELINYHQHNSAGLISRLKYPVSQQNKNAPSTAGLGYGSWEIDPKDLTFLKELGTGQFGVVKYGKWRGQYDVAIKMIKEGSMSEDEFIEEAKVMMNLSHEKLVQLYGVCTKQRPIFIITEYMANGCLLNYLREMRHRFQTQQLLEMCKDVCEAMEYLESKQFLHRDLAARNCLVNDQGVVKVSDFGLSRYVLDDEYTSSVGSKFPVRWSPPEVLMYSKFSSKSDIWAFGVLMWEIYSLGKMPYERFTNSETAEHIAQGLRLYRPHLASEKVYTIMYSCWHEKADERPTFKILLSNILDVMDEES
Chain of Btk kinase (Q06187 whole entry): as above

SMILES: Cn1nc(Nc2cc(-c3cccc(-n4ccc5cc(C(C)(C)C#N)cc(F)c5c4=O)c3CO)nn(C)c2=O)cc1CN1CCC1 [Compound 2, 2-(2-{3-[5-(5-Azetidin-1-ylmethyl-1-methyl-1H-pyrazol-3-ylamino)-1-methyl-6-oxo-1,6-dihydro-pyridazin-3-yl]-2-hydroxymethyl-phenyl}-8-fluoro-1-oxo-1,2-dihydro-isoquinolin-6-yl)-2-methyl-propionitrile]
- Btk inhibitor potency (FRET) (Bruton's Tyrosine Kinase): very potent
- IC50 (Bruton's Tyrosine Kinase): 1.1 nM
- % reduction in airway resistance (R) [1, 4]: 53%
- % reduction in airway resistance (R) [1, 5]: 64* %
- % reduction in airway resistance (R) [1, 6]: 105* %
- CL (Pharmacokinetics in rat; Table 8): high
- Oral Bioavailability (Pharmacokinetics in rat; Table 8): low
- clearance (Pharmacokinetics in rat; Table 8): 84.9 mL/min/kg
- bioavailability (Pharmacokinetics in rat; Table 8): < 2%
- Kd (Btk kinase): 1.48 nM
- off rate (Btk kinase): very slow
- kon (Btk kinase): 453000 M⁻¹ s⁻¹
- CL (Pharmacokinetics in dog; Table 8): high
- Oral Bioavailability (Pharmacokinetics in dog; Table 8): low
- clearance (Pharmacokinetics in dog; Table 8): 35 mL/min/kg
- bioavailability (Pharmacokinetics in dog; Table 8): 4%
- IC50 ([2]; read-out: IC50 1L-13 release): 91.9 nM
- IC50 ([2]; read-out: IC50 GM-CSF release): 26 nM
- IC50 [2, 7]: 9.6 nM
- IC50 ([2]; read-out: IC50 IL-5 release): 13.2 nM
- IC50 ([2]; read-out: IC50 PGD2 release): 3.09 nM
- IC50 ([3]; read-out: IC50 IgG production): 9.26 nM
- IC50 ([3]; read-out: IC50 IgM production): 3.28 nM

SMILES: COCCNCc1ccc(Nc2cc(-c3cccc(N4CCc5cc(C(C)(C)C)ccc5C4=O)c3CO)cn(C)c2=O)nc1 [Compound 3, 6-tert-Butyl-2-[2-hydroxymethyl-3-(5-{5-[(2-methoxy-ethylamino)-methyl]-pyridin-2-ylamino}-1-methyl-6-oxo-1,6-dihydro-pyridin-3-yl)-phenyl]-3,4-dihydro-2H-isoquinolin-1-one]
- Btk inhibitor potency (FRET) (Bruton's Tyrosine Kinase): very potent
- IC50 (Bruton's Tyrosine Kinase): 0.2 nM
- % reduction in airway resistance (R) [1, 4]: 77* %
- % reduction in airway resistance (R) [1, 5]: 83* %
- % reduction in airway resistance (R) [1, 6]: 93* %
- CL (Pharmacokinetics in rat; Table 9): high
- Oral Bioavailability (Pharmacokinetics in rat; Table 9): low
- clearance (Pharmacokinetics in rat; Table 9): 111 mL/min/kg
- bioavailability (Pharmacokinetics in rat; Table 9): 7%
- Kd (Btk kinase): 0.119 nM
- off rate (Btk kinase): very slow
- kon (Btk kinase): 1.07e+06 M⁻¹ s⁻¹
- CL (Pharmacokinetics in dog; Table 9): high
- Oral Bioavailability (Pharmacokinetics in dog; Table 9): low
- clearance (Pharmacokinetics in dog; Table 9): 31.4 mL/min/kg
- bioavailability (Pharmacokinetics in dog; Table 9): 8%
- IC50 ([2]; read-out: IC50 1L-13 release): 97.4 nM
- IC50 ([2]; read-out: IC50 GM-CSF release): 28.6 nM
- IC50 [2, 7]: 21.7 nM
- IC50 ([2]; read-out: IC50 IL-5 release): 86.7 nM
- IC50 ([2]; read-out: IC50 PGD2 release): 5.31 nM
- IC50 ([3]; read-out: IC50 IgG production): 3.17 nM
- IC50 ([3]; read-out: IC50 IgM production): 4.76 nM

Source: US20150290192A1, “INHIBITORS OF BRUTON'S TYROSINE KINASE” (HOFFMANN-LA ROCHE INC., priority 2012, published 2015)
